The record followed here is paper PMC8778670, “Identification of an Orally Bioavailable, Brain-Penetrant Compound with Selectivity for the Cannabinoid Type 2 Receptor” (Molecules, 2022).

What is called Ki is the dissociation constant of the complex between target and ligand, obtained from inhibition or displacement. Low readings indicate a stronger hold on the target, high ones a looser hold on the target.

One assay concerns the target T1, human CB2 receptors (Homo sapiens, UniProt P34972).
T1 construct: expressed in transfected cells; host or cells: CHO cells
Kind of assay: Cannabinoid receptor [3H]CP-55,940 displacement binding assay, CB2. The note with it: for inhibition at 10 µM: 1 h, 10 µM compound, CHO cell membranes, 2.5 nM radioligand, read-out: Displacement of [3H]CP-55,940 from CB2; for displacement of [3H]CP-55,940 in the competitive radioligand screen: 10 µM, receptor (CB1 or CB2) not given. Here is the method: (§1) The affinities of the compounds for CB1 and CB2 receptors were examined using displacement assays, as previously described. Briefly, cell membranes from CHO cells expressing human CB1 or human CB2 receptors were isolated using differential centrifugation. Test compounds reconstituted in DMSO and were incubated with the isolated membrane in binding buffer (50 mM Tris-HCl, 1 mM EDTA, 3 mM MgCl2, 5 mg/mL BSA, pH 7.4) along with 2.5 nM [^3H]CP-55,940. Total binding was assessed in the presence of equal concentration of DMSO, while non-specific binding was determined in the presence of 10 μM CP-55,940, and background binding was determined in wells lacking membrane. Following incubation at 30 °C for 60 min, the binding reactions were terminated by vacuum filtration through Whatman GF/C filters. The filters were then washed twice with ice-cold buffer (50 mM Tris-HCl, 1 mg/mL BSA). Liquid scintillation cocktail was added to each well and the total tritiated counts per minute were analyzed using a TopCount scintillation counter. Background counts were subtracted from all wells and the percent displacement from total binding was calculated.
(§2) The compounds were initially screened at 10 μM concentrations. If they produced at least ±30% displacement of the radioligand, then full competition curves were constructed. Ki values were calculated using GraphPad Prism (San Diego, CA, USA) and Kd values determined using a 1 site fit. All assays were run in technical and biological replicates so that the n = 5–6.
(Displacement assays read how much labelled ligand stays bound in the presence of the test substance.)

The next assay has as its target T2, human CB1 receptors (Homo sapiens, UniProt P21554).
T2 construct: expressed in transfected cells; host or cells: CHO cells
Kind of assay: Cannabinoid receptor [3H]CP-55,940 displacement binding assay, CB1. The note with it: 1 h; 10 µM compound; CHO cell membranes, 2.5 nM radioligand; read-out: Displacement of [3H]CP-55,940 from CB1. Here is the method:
as §1, §2

T1 sequence (P34972 whole entry): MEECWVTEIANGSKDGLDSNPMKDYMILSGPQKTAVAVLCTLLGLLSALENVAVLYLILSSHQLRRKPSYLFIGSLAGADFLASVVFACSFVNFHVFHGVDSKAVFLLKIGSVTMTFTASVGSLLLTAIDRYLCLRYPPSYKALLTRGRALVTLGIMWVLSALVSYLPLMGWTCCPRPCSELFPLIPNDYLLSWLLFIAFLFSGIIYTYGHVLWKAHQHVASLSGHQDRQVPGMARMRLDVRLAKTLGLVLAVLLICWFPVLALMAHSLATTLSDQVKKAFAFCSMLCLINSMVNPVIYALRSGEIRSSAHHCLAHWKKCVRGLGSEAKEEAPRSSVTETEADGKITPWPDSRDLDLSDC
T2 sequence (P21554 whole entry): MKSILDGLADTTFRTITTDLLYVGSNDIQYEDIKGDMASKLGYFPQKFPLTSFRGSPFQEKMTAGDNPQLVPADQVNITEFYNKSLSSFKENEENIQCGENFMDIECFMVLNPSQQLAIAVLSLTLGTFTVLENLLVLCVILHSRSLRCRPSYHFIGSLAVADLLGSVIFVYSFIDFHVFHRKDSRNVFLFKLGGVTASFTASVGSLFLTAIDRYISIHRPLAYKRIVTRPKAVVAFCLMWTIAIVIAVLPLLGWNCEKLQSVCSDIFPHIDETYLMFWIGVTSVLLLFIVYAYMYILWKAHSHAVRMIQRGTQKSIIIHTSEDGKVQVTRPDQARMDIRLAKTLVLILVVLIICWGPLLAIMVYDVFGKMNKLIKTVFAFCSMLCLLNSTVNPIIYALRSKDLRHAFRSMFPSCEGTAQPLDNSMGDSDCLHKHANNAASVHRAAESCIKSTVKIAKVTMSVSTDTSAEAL

In the case of `Cn1cc(/C=N/N=C2/Nc3ccccc3C(=O)N3CCC[C@@H]23)c2ccccc21` [Compound 4o], the inhibition at 10 µM on human CB2 receptors came to 1.01%; on human CB1 receptors, 5.09%.

For the compound `O=C1c2ccccc2N/C(=N/N=C/c2cc3ccccc3s2)[C@@H]2CCCN12` [Compound 4h, (S,E)-11-[2-(Benzo[b]thiophenylmethylene)hydrazono]-pyrrolo[2,1-c][1,4] Benzodiazepine], at human CB2 receptors, the “displacement of [3H]CP-55,940 in the competitive radioligand screen” value was “more than 60%” and the inhibition at 10 µM amounted to 61%. For the same compound, the inhibition at 10 µM on human CB1 receptors is 36.9%.

As to `Cn1ccnc1/C=N/N=C1/Nc2ccccc2C(=O)N2CCC[C@@H]12` [Compound 4b], the inhibition at 10 µM was -14.5% at human CB2 receptors and -14% at human CB1 receptors.

In the case of `O=C1c2cc(Br)ccc2N/C(=N/N=C/c2csc3ccccc23)[C@@H]2CCCN12` [Compound 4j], the inhibition at 10 µM on human CB2 receptors was found to be 65.2%; on human CB1 receptors it was 66.8%.

As for `O=C1c2cc(Br)ccc2N/C(=N/N=C/c2cc3ccccc3s2)[C@@H]2CCCN12` [Compound 4i, (S,E)-11-[(Benzo[b]thiophen-2-ylmethylene)hydrazono]-7-bromo-pyrrolo[2,1-c][1,4] Benzodiazepine], the inhibition at 10 µM at human CB2 receptors was found to be 36.4%; at human CB1 receptors, 49.8%.

Take `Cc1c(/C=N/N=C2/Nc3ccccc3C(=O)N3CCC[C@@H]23)sc2ccccc12` [Compound 4l]: the results for the inhibition at 10 µM on human CB2 receptors and at human CB1 receptors were 51.7% and 77.2%, respectively.

Regarding `O=C1c2ccccc2N/C(=N/N=C/c2sc3ccccc3c2Cl)[C@@H]2CCCN12` [Compound 4m], the figures for the inhibition at 10 µM on human CB2 receptors and on human CB1 receptors were 50% and 5.22%, respectively.

For the compound `Nc1ncc(/C=N/N=C2/Nc3ccccc3C(=O)N3CCC[C@@H]23)s1` [Compound 4f], the values for the inhibition at 10 µM at human CB2 receptors and on human CB1 receptors were 3.72% and 1.75%, respectively.

As for `O=C1c2ccccc2N/C(=N/N=C/C23CC4CC(CC(C4)C2)C3)[C@@H]2CCCN12` [Compound 4q], on human CB2 receptors, the “displacement of [3H]CP-55,940 in the competitive radioligand screen” value was “more than 60%” and the inhibition at 10 µM stood at 95.6%. The same compound registered a Ki on human CB2 receptors (CB2, full competition curves vs [3H]CP-55,940) of 0.137 µM. Moreover, on human CB1 receptors, the inhibition at 10 µM amounted to 55.3%.

As to `Cc1ncc(/C=N/N=C2/Nc3ccccc3C(=O)N3CCC[C@@H]23)s1` [Compound 4d], the inhibition at 10 µM on human CB2 receptors was -33.6%; at human CB1 receptors, -28%.

For `O=C1c2ccccc2N/C(=N/N=C/c2cncs2)[C@@H]2CCCN12` [Compound 4c, (S,E)-11-[(Thiazol-5-ylmethylene)hydrazono]-pyrrolo[2,1-c][1,4] Benzodiazepine], the inhibition at 10 µM came out at 3.06% at human CB2 receptors and 0.25% on human CB1 receptors.

Consider `O=C1c2ccccc2N/C(=N/N=C/c2sc(Cl)nc2Cl)[C@@H]2CCCN12` [Compound 4g], for which the inhibition at 10 µM at human CB2 receptors was determined as 29.3%; on human CB1 receptors it was 24.2%.

With `Cc1ncsc1/C=N/N=C1/Nc2ccccc2C(=O)N2CCC[C@@H]12` [Compound 4e], the inhibition at 10 µM at human CB2 receptors stood at 19.9%; at human CB1 receptors it was 21.9%.

On to `O=C1c2ccccc2N/C(=N/N=C/c2nc3ccccc3s2)[C@@H]2CCCN12` [Compound 4n, (S,E)-11-[(Benzo[d]thiazol-2-ylmethylene)hydrazono]-pyrrolo[2,1-c][1,4] Benzodiazepine], for which the inhibition at 10 µM at human CB2 receptors was 43.3%; on human CB1 receptors, 44.1%.

For the compound `O=C1c2ccccc2N/C(=N/N=C/c2ccc[nH]2)[C@@H]2CCCN12` [Compound 4a], the inhibition at 10 µM at human CB2 receptors is -12.5%; at human CB1 receptors, -3.09%.
